Test results reported in PubChem BioAssay (NCI).
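Method: 48-hour compound exposure of cells in 96-well plates, five concentrations, linear interpolation of endpoints. Abbreviation: GI50, concentration required for 50% inhibition of growth. The concentration for full growth arrest is given as TGI.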

What was measured:
Assay in all cases: NCI anticancer screen, dose series, 48 h
DU-145 prostate = test system: DU-145 prostate
OVCAR-5 ovarian = test system: OVCAR-5 ovarian
NCI/ADR-RES ovarian = test system: NCI/ADR-RES ovarian
OVCAR-8 ovarian = test system: OVCAR-8 ovarian
RXF 393 renal = test system: RXF 393 renal
MDA-MB-231 breast = test system: MDA-MB-231 breast
HS 578T breast = test system: HS 578T breast
NCI-H522 lung = test system: NCI-H522 lung
HL-60(TB) leukemia = test system: HL-60(TB) leukemia
HOP-62 NSCLC = test system: HOP-62 NSCLC
SNB-19 CNS = test system: SNB-19 CNS
786-0 renal = test system: 786-0 renal
ACHN renal = test system: ACHN renal
SK-MEL-5 melanoma = test system: SK-MEL-5 melanoma
HT29 colon = test system: HT29 colon
U251 CNS = test system: U251 CNS
HCT-116 colon = test system: HCT-116 colon
MCF7 breast = test system: MCF7 breast
BT-549 breast = test system: BT-549 breast
MDA-MB-435 = test system: MDA-MB-435
SN12C renal = test system: SN12C renal
NCI-H460 lung = test system: NCI-H460 lung
UO-31 renal = test system: UO-31 renal
SNB-75 CNS = test system: SNB-75 CNS
IGROV1 ovarian = test system: IGROV1 ovarian
HCC-2998 colon = test system: HCC-2998 colon
K-562 leukemia = test system: K-562 leukemia
TK-10 renal = test system: TK-10 renal
NCI-H23 lung = test system: NCI-H23 lung
CAKI-1 renal = test system: CAKI-1 renal
SK-MEL-28 melanoma = test system: SK-MEL-28 melanoma
COLO 205 colon = test system: COLO 205 colon
HCT-15 colon = test system: HCT-15 colon
MOLT-4 leukemia = test system: MOLT-4 leukemia
UACC-257 melanoma = test system: UACC-257 melanoma
CCRF-CEM leukemia = test system: CCRF-CEM leukemia
SR leukemia = test system: SR leukemia
EKVX NSCLC = test system: EKVX NSCLC
SF-539 CNS = test system: SF-539 CNS
HOP-92 NSCLC = test system: HOP-92 NSCLC
RPMI-8226 leukemia = test system: RPMI-8226 leukemia
SF-295 CNS = test system: SF-295 CNS
SK-OV-3 ovarian = test system: SK-OV-3 ovarian
PC-3 prostate = test system: PC-3 prostate
SK-MEL-2 melanoma = test system: SK-MEL-2 melanoma
KM12 colon = test system: KM12 colon
SF-268 CNS = test system: SF-268 CNS
M14 melanoma = test system: M14 melanoma
OVCAR-3 ovarian = test system: OVCAR-3 ovarian
A549 NSCLC = test system: A549 NSCLC
NCI-H226 lung = test system: NCI-H226 lung
SW-620 colon = test system: SW-620 colon
MALME-3M melanoma = test system: MALME-3M melanoma
LOX IMVI melanoma = test system: LOX IMVI melanoma
OVCAR-4 ovarian = test system: OVCAR-4 ovarian
UACC-62 melanoma = test system: UACC-62 melanoma
T-47D breast = test system: T-47D breast

`CCOC(=O)c1c(C)n(Cc2ccc(Cl)cc2Cl)c2c1cc1oc(=O)c(=O)n3c(Cc4ccccc4)nc2c13` was tested, and the GI50 (DU-145 prostate) was 2.45 µM, the TGI (DU-145 prostate) was 6.64 µM and the GI50 (OVCAR-5 ovarian) was 2.73 µM. The TGI (OVCAR-5 ovarian) was 6.16 µM, the GI50 (NCI/ADR-RES ovarian) was 5.46 µM and the TGI (NCI/ADR-RES ovarian) was 18.3 µM. The GI50 (OVCAR-8 ovarian) was 5.22 µM, the TGI (OVCAR-8 ovarian) was 25.8 µM and the GI50 (RXF 393 renal) was 2.98 µM. For the same molecule, the TGI (RXF 393 renal) was 7.34 µM, the GI50 (MDA-MB-231 breast) was 2.77 µM and the TGI (MDA-MB-231 breast) was 7.23 µM. The GI50 (HS 578T breast) was 1.21 µM, the TGI (HS 578T breast) was 3.12 µM and the GI50 (NCI-H522 lung) was 6.1 µM. It also gave a TGI (NCI-H522 lung) of 25.5 µM, a GI50 (HL-60(TB) leukemia) of 2.09 µM and a TGI (HL-60(TB) leukemia) of 6.09 µM. The GI50 (HOP-62 NSCLC) was 5.37 µM, the TGI (HOP-62 NSCLC) was 18.3 µM and the GI50 (SNB-19 CNS) was 6.12 µM. For the same molecule, the TGI (SNB-19 CNS) was 20.9 µM, the GI50 (786-0 renal) was 5.18 µM and the TGI (786-0 renal) was 19.2 µM. For the same molecule, the GI50 (ACHN renal) was 3.06 µM, the TGI (ACHN renal) was 11.8 µM and the GI50 (SK-MEL-5 melanoma) was 1.97 µM. It also gave a TGI (SK-MEL-5 melanoma) of 3.54 µM, a GI50 (HT29 colon) of 4.65 µM and a TGI (HT29 colon) of 17.4 µM. For the same molecule, the GI50 (U251 CNS) was 2.45 µM, the TGI (U251 CNS) was 6.5 µM and the GI50 (HCT-116 colon) was 2.05 µM. It also gave a TGI (HCT-116 colon) of 4.87 µM, a GI50 (MCF7 breast) of 2.52 µM and a TGI (MCF7 breast) of 8.07 µM. For the same molecule, the GI50 (BT-549 breast) was 2.55 µM, the TGI (BT-549 breast) was 6.4 µM and the GI50 (MDA-MB-435) was 4.55 µM. The TGI (MDA-MB-435) was 16.9 µM, the GI50 (SN12C renal) was 2.22 µM and the TGI (SN12C renal) was 4.56 µM. It also gave a GI50 (NCI-H460 lung) of 2.68 µM, a TGI (NCI-H460 lung) of 7.06 µM and a GI50 (UO-31 renal) of 3.77 µM. For the same molecule, the TGI (UO-31 renal) was 15 µM, the GI50 (SNB-75 CNS) was 10.1 µM and the TGI (SNB-75 CNS) was 27.7 µM. For the same molecule, the GI50 (IGROV1 ovarian) was 2.11 µM, the TGI (IGROV1 ovarian) was 15.2 µM and the GI50 (HCC-2998 colon) was 2.25 µM. The TGI (HCC-2998 colon) was 5.04 µM, the GI50 (K-562 leukemia) was 3.13 µM and the TGI (K-562 leukemia) was 7.18 µM. The GI50 (TK-10 renal) was 2.64 µM, the TGI (TK-10 renal) was 6.95 µM and the GI50 (NCI-H23 lung) was 2.8 µM. The TGI (NCI-H23 lung) was 7.3 µM, the GI50 (CAKI-1 renal) was 2.69 µM and the TGI (CAKI-1 renal) was 9.36 µM. It also gave a GI50 (SK-MEL-28 melanoma) of 11 µM, a TGI (SK-MEL-28 melanoma) of 24.9 µM and a GI50 (COLO 205 colon) of 4.65 µM. The TGI (COLO 205 colon) was 25.3 µM, the GI50 (HCT-15 colon) was 3.92 µM and the TGI (HCT-15 colon) was 14.8 µM. For the same molecule, the GI50 (MOLT-4 leukemia) was 2.12 µM, the TGI (MOLT-4 leukemia) was 4.55 µM and the GI50 (UACC-257 melanoma) was 17.3 µM. For the same molecule, the TGI (UACC-257 melanoma) was 36.3 µM, the GI50 (CCRF-CEM leukemia) was 1.31 µM and the TGI (CCRF-CEM leukemia) was 3.19 µM. It also gave a GI50 (SR leukemia) of 0.378 µM, a TGI (SR leukemia) of 2.38 µM and a GI50 (EKVX NSCLC) of 8.05 µM. It also gave a TGI (EKVX NSCLC) of 20.8 µM, a GI50 (SF-539 CNS) of 8.44 µM and a TGI (SF-539 CNS) of 20.7 µM. For the same molecule, the GI50 (HOP-92 NSCLC) was 1.56 µM, the TGI (HOP-92 NSCLC) was 3.81 µM and the GI50 (RPMI-8226 leukemia) was 1.71 µM. For the same molecule, the TGI (RPMI-8226 leukemia) was 3.57 µM, the GI50 (SF-295 CNS) was 2.32 µM and the TGI (SF-295 CNS) was 10.9 µM. It also gave a GI50 (SK-OV-3 ovarian) of 15.3 µM, a TGI (SK-OV-3 ovarian) of 30.7 µM and a GI50 (PC-3 prostate) of 2.06 µM. The TGI (PC-3 prostate) was 5.01 µM, the GI50 (SK-MEL-2 melanoma) was 11.8 µM and the TGI (SK-MEL-2 melanoma) was 32.6 µM. For the same molecule, the GI50 (KM12 colon) was 1.63 µM, the TGI (KM12 colon) was 3.47 µM and the GI50 (SF-268 CNS) was 2.31 µM. It also gave a TGI (SF-268 CNS) of 5.84 µM, a GI50 (M14 melanoma) of 13 µM and a TGI (M14 melanoma) of 36.7 µM. The GI50 (OVCAR-3 ovarian) was 1.91 µM, the TGI (OVCAR-3 ovarian) was 4.44 µM and the GI50 (A549 NSCLC) was 3.64 µM. It also gave a TGI (A549 NSCLC) of 13.5 µM, a GI50 (NCI-H226 lung) of 10.7 µM and a TGI (NCI-H226 lung) of 25 µM. For the same molecule, the GI50 (SW-620 colon) was 1.95 µM, the TGI (SW-620 colon) was 4.3 µM and the GI50 (MALME-3M melanoma) was 5.3 µM. It also gave a TGI (MALME-3M melanoma) of 12.9 µM, a GI50 (LOX IMVI melanoma) of 1.83 µM and a TGI (LOX IMVI melanoma) of 3.38 µM. For the same molecule, the GI50 (OVCAR-4 ovarian) was 4.45 µM, the TGI (OVCAR-4 ovarian) was 16.4 µM and the GI50 (UACC-62 melanoma) was 14.5 µM. The TGI (UACC-62 melanoma) was 28.2 µM, the GI50 (T-47D breast) was 4.9 µM and the TGI (T-47D breast) was 22.2 µM.
